Measured values: patent US10633366B2, “Antibacterial compounds” (AZIENDE CHIMICHE RIUNITE ANGELINI FRANCESCO A.C.R.A.F. …, priority 2016, dated 2020)
Read-outs that look alike come from different tables or passages of the source.

Tests used:
Experiment in all cases: biochemical
[1] = target: S. aureus Topoisomerase IV (Staphylococcus aureus, UniProt P0C1S7+P0C1U9); details: for inhibition at 50 µM: read-out: % inhibition Topo IV
[2] = target: S. aureus DNA gyrase (Staphylococcus aureus, UniProt P0A0K8+P20831); details: for inhibition at 50 µM: read-out: % inhibition DNA gyrase
Chain of S. aureus DNA gyrase (P0A0K8 whole entry): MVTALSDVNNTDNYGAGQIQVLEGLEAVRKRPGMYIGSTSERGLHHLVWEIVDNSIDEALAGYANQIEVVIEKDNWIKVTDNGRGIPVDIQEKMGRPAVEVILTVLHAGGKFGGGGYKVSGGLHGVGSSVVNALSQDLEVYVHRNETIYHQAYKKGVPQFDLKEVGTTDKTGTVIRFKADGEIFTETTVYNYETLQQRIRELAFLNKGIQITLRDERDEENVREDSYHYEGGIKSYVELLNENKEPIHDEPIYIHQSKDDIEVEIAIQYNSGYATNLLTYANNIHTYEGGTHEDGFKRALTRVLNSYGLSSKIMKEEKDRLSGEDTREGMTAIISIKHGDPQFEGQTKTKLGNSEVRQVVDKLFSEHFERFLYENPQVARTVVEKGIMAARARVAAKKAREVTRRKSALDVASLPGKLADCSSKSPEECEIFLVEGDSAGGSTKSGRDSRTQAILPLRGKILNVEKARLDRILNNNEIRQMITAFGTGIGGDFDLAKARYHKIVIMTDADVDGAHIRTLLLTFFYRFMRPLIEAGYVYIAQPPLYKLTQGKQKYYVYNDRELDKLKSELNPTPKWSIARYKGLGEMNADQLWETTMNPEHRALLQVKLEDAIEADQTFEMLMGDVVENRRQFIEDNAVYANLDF
Chain of S. aureus DNA gyrase (P20831 whole entry): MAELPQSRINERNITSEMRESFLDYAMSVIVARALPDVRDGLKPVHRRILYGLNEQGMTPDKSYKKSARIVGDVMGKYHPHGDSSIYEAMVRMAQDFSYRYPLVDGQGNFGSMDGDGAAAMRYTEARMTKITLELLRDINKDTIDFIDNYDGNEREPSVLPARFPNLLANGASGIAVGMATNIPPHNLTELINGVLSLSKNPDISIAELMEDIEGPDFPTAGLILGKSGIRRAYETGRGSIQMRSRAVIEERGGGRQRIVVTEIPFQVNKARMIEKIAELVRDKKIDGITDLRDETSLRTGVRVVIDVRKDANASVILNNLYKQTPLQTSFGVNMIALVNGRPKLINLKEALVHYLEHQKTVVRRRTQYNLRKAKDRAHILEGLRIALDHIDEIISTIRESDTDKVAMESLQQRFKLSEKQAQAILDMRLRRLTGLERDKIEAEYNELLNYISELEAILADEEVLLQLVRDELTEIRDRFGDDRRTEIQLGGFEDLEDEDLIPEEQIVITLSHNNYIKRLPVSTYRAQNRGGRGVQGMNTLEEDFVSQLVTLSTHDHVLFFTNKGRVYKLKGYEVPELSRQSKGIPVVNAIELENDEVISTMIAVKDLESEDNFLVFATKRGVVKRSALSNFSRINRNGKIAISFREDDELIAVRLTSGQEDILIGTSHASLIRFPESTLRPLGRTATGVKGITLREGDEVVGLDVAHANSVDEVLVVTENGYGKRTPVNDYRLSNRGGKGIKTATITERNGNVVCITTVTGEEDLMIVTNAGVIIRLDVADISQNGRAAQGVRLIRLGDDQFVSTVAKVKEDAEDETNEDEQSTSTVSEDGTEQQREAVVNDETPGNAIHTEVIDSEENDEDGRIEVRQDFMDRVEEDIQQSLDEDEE

[3] = target: E. coli DNA gyrase (Escherichia coli, UniProt P0AES4+P0AES6); details: for inhibition at 50 µM: read-out: % inhibition DNA gyrase
Chain of E. coli DNA gyrase (P0AES4 whole entry, one chain of several): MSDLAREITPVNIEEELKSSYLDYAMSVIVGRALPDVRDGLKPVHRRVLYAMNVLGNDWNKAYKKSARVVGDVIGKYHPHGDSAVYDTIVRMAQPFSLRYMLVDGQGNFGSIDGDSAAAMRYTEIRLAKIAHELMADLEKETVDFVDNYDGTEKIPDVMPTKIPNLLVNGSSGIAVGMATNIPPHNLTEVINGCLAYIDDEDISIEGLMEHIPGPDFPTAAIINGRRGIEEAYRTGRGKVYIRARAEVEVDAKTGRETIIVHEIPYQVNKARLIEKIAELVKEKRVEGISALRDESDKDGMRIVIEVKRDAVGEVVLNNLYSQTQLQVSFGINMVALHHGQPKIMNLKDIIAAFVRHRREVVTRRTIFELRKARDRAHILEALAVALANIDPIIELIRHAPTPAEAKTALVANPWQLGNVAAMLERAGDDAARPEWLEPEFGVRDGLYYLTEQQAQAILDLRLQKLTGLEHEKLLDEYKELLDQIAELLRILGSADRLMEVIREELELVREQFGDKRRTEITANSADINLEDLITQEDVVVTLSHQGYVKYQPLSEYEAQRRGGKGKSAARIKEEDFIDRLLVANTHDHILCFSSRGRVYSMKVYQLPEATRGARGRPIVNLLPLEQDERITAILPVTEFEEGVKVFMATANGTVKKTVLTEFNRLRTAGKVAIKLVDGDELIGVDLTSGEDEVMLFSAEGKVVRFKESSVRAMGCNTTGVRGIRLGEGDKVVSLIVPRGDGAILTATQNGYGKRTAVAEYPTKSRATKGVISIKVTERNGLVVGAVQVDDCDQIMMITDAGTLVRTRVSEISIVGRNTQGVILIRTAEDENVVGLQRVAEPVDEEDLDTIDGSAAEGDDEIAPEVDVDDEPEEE

[4] = target: E. coli Topoisomerase IV (Escherichia coli, UniProt P0AFI2+P20083); details: for inhibition at 50 µM: read-out: % inhibition Topo IV

Chain of S. aureus Topoisomerase IV (P0C1U9 whole entry): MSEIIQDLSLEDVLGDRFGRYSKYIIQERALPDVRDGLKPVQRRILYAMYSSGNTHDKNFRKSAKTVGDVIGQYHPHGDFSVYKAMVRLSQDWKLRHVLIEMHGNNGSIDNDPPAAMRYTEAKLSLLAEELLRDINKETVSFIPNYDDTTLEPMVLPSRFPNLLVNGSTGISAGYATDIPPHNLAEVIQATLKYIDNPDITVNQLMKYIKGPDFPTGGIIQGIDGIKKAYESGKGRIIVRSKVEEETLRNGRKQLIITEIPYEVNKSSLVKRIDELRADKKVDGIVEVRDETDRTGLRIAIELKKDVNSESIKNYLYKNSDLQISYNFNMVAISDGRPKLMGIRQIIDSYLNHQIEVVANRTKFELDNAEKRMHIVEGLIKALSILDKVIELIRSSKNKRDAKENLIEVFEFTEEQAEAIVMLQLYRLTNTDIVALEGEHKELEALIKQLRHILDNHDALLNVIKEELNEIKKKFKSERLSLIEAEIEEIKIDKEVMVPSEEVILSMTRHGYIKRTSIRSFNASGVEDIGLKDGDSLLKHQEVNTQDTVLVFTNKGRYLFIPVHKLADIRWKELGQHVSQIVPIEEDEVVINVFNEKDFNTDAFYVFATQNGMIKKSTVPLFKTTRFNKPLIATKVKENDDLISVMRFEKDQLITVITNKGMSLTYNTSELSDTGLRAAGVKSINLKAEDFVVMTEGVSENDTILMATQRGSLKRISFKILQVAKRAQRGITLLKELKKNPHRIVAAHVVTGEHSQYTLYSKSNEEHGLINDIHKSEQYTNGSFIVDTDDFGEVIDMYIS
Chain of S. aureus Topoisomerase IV (P0C1S7 whole entry): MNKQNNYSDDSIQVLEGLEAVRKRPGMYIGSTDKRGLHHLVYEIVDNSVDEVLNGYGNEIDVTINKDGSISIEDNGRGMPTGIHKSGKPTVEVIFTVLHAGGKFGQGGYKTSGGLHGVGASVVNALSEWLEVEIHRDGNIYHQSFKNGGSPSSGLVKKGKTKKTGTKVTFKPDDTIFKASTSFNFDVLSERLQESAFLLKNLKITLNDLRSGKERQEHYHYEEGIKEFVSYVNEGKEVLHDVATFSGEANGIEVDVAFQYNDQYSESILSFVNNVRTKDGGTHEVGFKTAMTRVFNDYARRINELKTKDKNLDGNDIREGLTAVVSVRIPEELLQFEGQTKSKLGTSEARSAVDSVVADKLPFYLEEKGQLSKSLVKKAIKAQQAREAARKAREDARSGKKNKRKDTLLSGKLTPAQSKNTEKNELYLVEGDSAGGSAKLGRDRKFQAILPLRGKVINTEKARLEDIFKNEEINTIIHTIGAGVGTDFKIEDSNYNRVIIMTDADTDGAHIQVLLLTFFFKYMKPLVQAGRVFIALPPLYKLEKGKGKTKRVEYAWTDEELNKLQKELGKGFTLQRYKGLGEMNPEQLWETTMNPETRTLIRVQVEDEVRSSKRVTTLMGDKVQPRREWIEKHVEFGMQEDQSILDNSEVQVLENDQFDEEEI

Compound	IC50 ([1]; IC50 Topo IV) [nM]	inhibition at 50 µM ([1]; S. aureus, compound conc. 50 μM, percent of inhibition versus positive control, n/a = not active) [%]	IC50 ([2]; IC50 DNA gyrase) [nM]	inhibition at 50 µM [2] [%]	IC50 ([3]; IC50 DNA gyrase) [nM]	inhibition at 50 µM [3] [%]	IC50 ([4]; IC50 Topo IV) [nM]	inhibition at 50 µM [4] [%]	inhibition at 50 µM [1] [%]
COc1ccc2ncc(=O)n([C@H]3CC[C@H](NCc4cc5c(=O)oc6ccc(F)cc6c5[nH]4)CC3)c2c1 [Compound 208, 8-fluoro-2-({[trans-4-(7-methoxy-2-oxoquinoxalin-1(2H)-yl)cyclohexyl]amino}methyl)[1]benzopyrano[4,3-b]pyrrol-4(1H)-one]	130	100	110	100	80	100	270	100	–
COc1ccc2ccc(=O)n(C3CCN(CCc4cc5c(=O)oc6ccc(F)cc6c5[nH]4)CC3)c2n1 [Compound 202, 8-fluoro-2-{2-[4-(7-methoxy-2-oxo-1,8-naphthyridin-1(2H)-yl)piperidin-1-yl]ethyl}[1]benzopyrano[4,3-b]pyrrol-4(1H)-one]	–	–	–	100	–	100	–	100	100
